Experimental findings from patent US20150253330A1, “PRE-SELECTION OF SUBJECTS FOR THERAPEUTIC TREATMENT WITH AN HSP90 INHIBITOR BASED ON HYPOXIC STATUS” (Synta Pharmaceuticals Corp., priority 2012, published 2015) are described below.

Structures are written as SMILES. Entries after “also recorded” stand apart in the source; their conditions may differ.

Data set [1] has as its system HPAC and ASPC-1 xenograft. Description: In vivo tumor growth delay and angiogenic assay, pancreatic xenografts. Also noted: species or system SCID mice. The conditions noted are these: 100 mg/kg IV once a week for three weeks. As for the experimental part:
It's postulated that functional inhibition of Hsp90 by ganetespib can inhibit angiogenesis and growth in vitro and in vivo models of pancreatic cancer. PANC-1 and HPAC cell lines were treated with vehicle or G (50 nM) for 24 h and lysates were analyzed by Western blot. Egg CAM and matrigel plug assays were performed to quantify the effects of ganetespib on angiogenesis. Efficacy of ganetespib (100 mg/kg) was assessed in mice bearing HPAC and ASPC-1 xenograft.
In vivo tumor growth delay and angiogenic assay: Five-week-old SCID mice were divided into 4 groups with 10 animals in each group. First two groups received 100 μl of Ice cold matrigel medium containing ASPC-1 (1×10^6 cells/100 μl) and other two groups received HPAC cell lines subcutaneously. Once the tumor reached 100-120 mm^3, the groups 2 and 4 received ganetespib (100 mg/kg body weight) IV once a week for three weeks. […] Every other day, tumor was measured using vernier caliper scale for a total of five weeks, when the animals were sacrificed. Skin around the implanted matrigel tumor was removed carefully and the tumor with its surrounding was photographed under visible light.

The test system of a further data set is VEGF secretion. Description: VEGF ELISA of conditioned medium of pancreatic cancer cell lines. In kind it is cell-based. As for the experimental part:
VEGF concentration in the conditioned medium (from control and treated cells) was determined using a commercial Human VEGF Quantikine ELISA kit (R&D systems, Minneapolis, Minn.) as per manufacturer's instructions.

The test system of the next data set is solid tumors. As to the kind of experiment: Phase I dose escalation study, twice-weekly administration in patients with solid tumors. The format is in vivo, human. As for the experimental part: An open-label Phase 1 dose-escalation study in subjects with solid tumors was performed. The first cohort consisted of three subjects who received 2 mg/m^2 of ganetespib during a 1-hour infusion 2 times per week (e.g., [Monday, Thursday] or [Tuesday, Friday]) for three consecutive weeks followed by a 1 week dose-free interval. The first infusion for the first three subjects was staggered by a minimum of 5 days between subjects. This staggered enrollment scheme was followed for the first cohort only. Subjects tolerating ganetespib continued treatment past week 8 until disease progression as long as the re-treatment criteria continued to be met.
Subsequent cohorts were originally planned to receive escalating doses of 4, 7, 10, 14, 19, 25, 33, 40, and 48 mg/m^2, provided that the previous dose was well-tolerated during cycle 1 (week 1-4). The dose escalation scheme was updated to 25, 50, 75 and 100 mg/m^2, provided that the previous dose was well-tolerated during cycle 1. Following the completion of enrollment at 50 mg/m^2 twice per week, subsequent cohorts were to be treated at 100 mg/m^2 (100% increase above prior dose) and 120 mg/m^2 (20% increase above prior dose), with further dose increments to be approximately 20% over the previous dose level, until the maximum tolerated dose (MTD) was determined. Enrollment was completed at 100 mg/m^2 and the next doses planned were 120 mg/m^2 and 144 mg/m^2.
There had to be at least three evaluable subjects in a cohort before dose escalation could occur. […] Once a subject experienced a DLT the cohort was expanded to six subjects. If only 1 of 6 subjects experienced a DLT, further dose escalation was allowed. However, if 2 of 3 or 2 of 6 subjects experienced a DLT, dose escalation terminated.
A subject's duration of participation included a 2-week screening period and two 4-week treatment cycles totaling approximately 10 weeks. However, at the investigator's discretion, subjects tolerating ganetespib continued treatment past week 8 until disease progression.
The subjects in this study had histologically- or cytologically-confirmed non-hematological malignancy that was metastatic or unresectable. The subjects were documented to be refractory to, or were not candidates for, current standard therapy.
Ganetespib was formulated using 90% v/v PEG 300 and 10% v/v Polysorbate 80 at a concentration of 8 mg/mL and was packaged in a Type I glass amber vial, stoppered with a Flurotec-coated stopper, and sealed. […] The formulation was further diluted with 5% dextrose for injection in infusion container (DEHP-free 500 mL) to a concentration range of 0.02 to 1.2 mg/mL and administered via infusion tubing (DEHP-free) with a 0.22 micron end filter over an hour to the patient. The dosing solution once prepared was administered within 3 hours. Eligible subjects received the drug during a 1-hour infusion 2 times per week for 3 consecutive weeks followed by a 1-week dose-free interval. The amount of ganetespib administered depended upon the cohort to which the subject was assigned and the subject's body surface area (BSA).
A person with triple negative breast cancer (with Stage III invasive ductal carcinoma) from Example 1 enrolled in a Phase I dose escalation study of ganetespib. The patient's disease had progressed on 7 prior chemotherapeutic regimens. The patient was administered 144 mg/m^2 of ganetespib twice-weekly for 3 weeks, followed by 1 week dose-free. […] After 4 cycles, there was a documented 31% reduction in target lesion size (partial response). The treatment was interrupted due to brain metastases treated with whole brain radiation, but treatment with ganetespib resumed in cycle 5.

A further data set concerns OCUB-M. Description: 72 hr viability by CTG, breast cancer cell line. The conditions noted are these: Basal. The format is cell-based. As for the experimental part: (§1) Breast cancer is a heterogeneous disease historically broken down into 4 subtypes. Various compounds were tested for their effects in cell viability assays using various breast cancer cell lines. Cellular viability was assessed using the CellTiter-Glo® Luminescent Cell Viability Assay (Promega, Madison, Wis., USA) according to the manufacturer's protocol. KRAS mutant NSCLC cell lines were seeded into 96-well plates based on optimal growth rates determined empirically for each line. Twenty-four hours after plating, cells were dosed with graded concentrations of ganetespib for 72 h. CellTiter-Glo® was added (50% v/v) to the cells, and the plates incubated for 10 min prior to luminescent detection in a SpectraMax® Plus 384 microplate reader (Molecular Devices, Sunnyvale, Calif., USA). Data were normalized to percent of control and IC50 values used to determine the sensitivity of each line. For the comparative analysis study with MEK and PI3K/mTOR inhibitors, A549, H2009, Calu-1, and H358 cells were treated with graded concentrations of ganetespib, AZD6244, or BEZ235 for 72 h and cell viability measured as above.
(§2) Breast cancer, cell lines, marker status, and IC50 in response to ganetespib at 72 hr (viability by CTG).

The next data set relates to SK-BR-3. As to the kind of experiment: 72 hr viability by CTG, breast cancer cell line. The format is cell-based. The conditions noted are these: Homo sapiens, SK-BR-3, Luminal, HER2+. The procedure:
as §1, §2

The next data set deals with BT-474. As to the kind of experiment: 72 hr viability by CTG, breast cancer cell line. The conditions noted are these: Homo sapiens, BT-474, Luminal, ER+ PR+ HER2+, viability by CTG (2D). In kind it is cell-based. As for the experimental part:
as §1, §2

The next data set concerns MDA-MB-468. Description: 72 hr viability by CTG, breast cancer cell line. The conditions noted are these: Homo sapiens, MDA-MB-468, Basal A. The format is cell-based. The procedure:
as §1, §2

The test system of a further data set is MCF7. Description: 72 hr viability by CTG, breast cancer cell line. The conditions noted are these: Homo sapiens, MCF7, Luminal, ER+ PR+. The format is cell-based. As for the experimental part: as §1, §2
[2] abbreviates: human pancreatic tumor xenografts.
The mark [3] stands for this setting: 41 of 54 enrolled patients assessable for response.
Setting [4] is: one TNBC patient, 144 mg/m^2 twice-weekly for 3 weeks, 1 week dose-free.

As a reminder, the IC50 is the midpoint of a concentration-inhibition curve. Read a high IC50 as weaker potency in that assay.

For `CC(C)c1cc(-c2nnc(O)n2-c2ccc3c(ccn3C)c2)c(O)cc1O` [ganetespib], in data set [1] (setting [2]), the Angiogenesis in vivo result was “inhibition of angiogenesis in vivo; also recorded: decreases angiogenesis” and the Tumor growth entry is recorded as “significant tumor growth delay; also recorded: significantly inhibits tumor growth”. Besides, in data set [1] (SCID mice), the “Deaths from the treatment” value is recorded as “None of the animals died”. Also, in the data set on VEGF secretion, the “VEGF secretion in the culture medium” value is recorded as “reduced VEGF secretion; also recorded: decrease in VEGF secretion; also recorded: down-regulation of VEGF secretion”. Besides, in the data set on solid tumors (setting [3]), the “Confirmed partial responses, patient with melanoma” value came out at 1 patient; the “Confirmed partial responses, patient with triple negative breast cancer” value was determined as 1 patient; the “Patients who achieved stable disease” value came out at 15 patients. In the data set on solid tumors (one TNBC patient, 144 mg/m^2 twice-weekly), the Tolerability result was “tolerated the treatment well with mild/moderate toxicities”. In the data set on solid tumors (setting [4]), the “Reduction in target lesion size after 4 cycles (partial response)” value amounted to 31% and the “Response per RECIST after 2 cycles” value is recorded as “stable disease”. This compound also came in with an IC50 with OCUB-M of 39 nM. This compound also showed an IC50 with SK-BR-3 of 10 nM. In the data set on BT-474, this compound displayed a concentration for half-maximal inhibition (IC50) of 13 nM. Besides, in the data set on MDA-MB-468, the IC50 was 27 nM. The compound further yielded a 50% inhibitory concentration (IC50) with MCF7 of 25 nM.
